Assay results as given in US20070275007A1, “Carbohydrate Antigen-Nanoparticle Conjugates and Uses Thereof as Antimetastatic Agents in Treating Cancer” (The Government of the United States of America, represented …, priority 2003, published 2007).

Test: Solubility in water and organic solvents
Assay type: physicochemical

solubility in chloroform (chloroform): moderately soluble
solubility in methanol (methanol (methanol and other organic solvents)): moderately soluble
solubility in water (water): soluble
Compound: CC(=O)NC1[C@H](OCCCCCS)OC(CO)[C@H](O)[C@@H]1O[C@@H]1OC(CO)[C@H](O)[C@H](O)C1O (stereo partly drawn) [126E-23]
